Test results: patent US20090137572A1, “2-substituted-4-heteroaryl-pyrimidines useful for the treatment of proliferative disorders” (priority 2004, published 2009)

Legend:
Type in all cases: biochemical
CDK2-cycline E = CDK2-cycline E (Homo sapiens, UniProt P24941); assay: Kinase assay (radioactive phosphate incorporation), CDK2-cyclin E; conditions: read-out: Kinase Inhibition pIC50 CDK2-cycline E (converted)
Method: (§1) Kinase assays. The compounds of the invention above were investigated for their ability to inhibit the enzymatic activity of various protein kinases (Table 2). This was achieved by measurement of incorporation of radioactive phosphate from ATP into appropriate polypeptide substrates. Recombinant protein kinases and kinase complexes were produced or obtained commercially. Assays were performed using 96-well plates and appropriate assay buffers (typically 25 mM β-glycerophosphate, 20 mM MOPS, 5 mM EGTA, 1 mM DTT, 1 mM […], pH 7.4), into which were added 2-4 μg of active enzyme with appropriate substrates. The reactions were initiated by addition of Mg/ATP mix (15 mM MgCl2+100 μM ATP with 30-50 kBq per well of [γ-^32P]-ATP) and mixtures incubated as required at 30° C. Reactions were stopped on ice, followed by filtration through p81 filterplates or GF/C filterplates (Whatman Polyfiltronics, Kent, UK). After washing 3 times with 75 mM aq orthophosphoric acid, plates were dried, scintillant added and incorporated radioactivity measured in a scintillation counter (TopCount, Packard Instruments, Pangbourne, Berks, UK). Compounds for kinase assay were made up as 10 mM stocks in DMSO and diluted into 10% DMSO in assay buffer.

[1] = target: T1, Flt3 (FMS-like tyrosine kinase-3) (Homo sapiens, UniProt P36888); assay: Kinase assay (radioactive phosphate incorporation), Flt3; conditions: pIC50 is -log(IC50, M), read-out: Kinase Inhibition pIC50 Flt3 (converted)
T1 sequence (P36888 27-993): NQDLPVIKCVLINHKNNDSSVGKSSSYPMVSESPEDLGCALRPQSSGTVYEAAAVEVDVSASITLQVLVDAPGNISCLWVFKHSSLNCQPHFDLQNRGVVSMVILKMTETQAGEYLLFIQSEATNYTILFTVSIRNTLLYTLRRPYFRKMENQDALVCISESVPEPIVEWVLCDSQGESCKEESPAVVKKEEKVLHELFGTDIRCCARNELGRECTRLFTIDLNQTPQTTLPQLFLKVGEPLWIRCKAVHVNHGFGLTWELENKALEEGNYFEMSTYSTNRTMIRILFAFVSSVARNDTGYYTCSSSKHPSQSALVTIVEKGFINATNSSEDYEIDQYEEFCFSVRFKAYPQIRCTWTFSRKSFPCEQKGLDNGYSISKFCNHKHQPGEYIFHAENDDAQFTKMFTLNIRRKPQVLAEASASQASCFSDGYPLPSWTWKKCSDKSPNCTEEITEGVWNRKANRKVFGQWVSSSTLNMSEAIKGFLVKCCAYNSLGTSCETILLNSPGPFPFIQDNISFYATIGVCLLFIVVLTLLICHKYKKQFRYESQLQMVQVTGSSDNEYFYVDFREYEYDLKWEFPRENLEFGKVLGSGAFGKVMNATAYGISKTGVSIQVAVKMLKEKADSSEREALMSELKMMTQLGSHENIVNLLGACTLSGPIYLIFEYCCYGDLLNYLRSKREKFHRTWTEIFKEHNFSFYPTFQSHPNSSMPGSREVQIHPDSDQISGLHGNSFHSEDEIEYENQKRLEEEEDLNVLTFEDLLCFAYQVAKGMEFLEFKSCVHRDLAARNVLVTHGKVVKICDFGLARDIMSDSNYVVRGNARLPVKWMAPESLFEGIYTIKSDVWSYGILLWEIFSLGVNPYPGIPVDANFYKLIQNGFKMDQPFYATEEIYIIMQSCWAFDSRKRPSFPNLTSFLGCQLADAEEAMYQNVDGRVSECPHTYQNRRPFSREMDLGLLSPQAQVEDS
Method: as §1

Aurora A kinase = target: T2, Aurora A kinase (Homo sapiens, UniProt O14965); assay: Aurora-A (human) kinase assay (Kemptide substrate); conditions: pIC50 is -log(IC50, M); 15 μM ATP; read-out: Kinase Inhibition pIC50 Aurora A kinase (converted)
T2 construct: purchased
T2 sequence (O14965 1-403): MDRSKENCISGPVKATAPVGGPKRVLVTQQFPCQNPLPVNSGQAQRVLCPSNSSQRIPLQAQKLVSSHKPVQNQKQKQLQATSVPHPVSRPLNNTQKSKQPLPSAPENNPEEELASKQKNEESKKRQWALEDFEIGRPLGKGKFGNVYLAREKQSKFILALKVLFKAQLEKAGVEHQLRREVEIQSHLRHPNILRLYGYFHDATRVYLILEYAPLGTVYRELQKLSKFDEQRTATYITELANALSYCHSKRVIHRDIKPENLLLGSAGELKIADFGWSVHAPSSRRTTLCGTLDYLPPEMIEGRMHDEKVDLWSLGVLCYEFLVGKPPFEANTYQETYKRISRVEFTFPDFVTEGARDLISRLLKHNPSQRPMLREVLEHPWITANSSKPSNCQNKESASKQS
Method: Aurora-A (human) kinase assay. This was achieved by measurement of incorporation of radioactive phosphate from ATP into Kemptide substrate (LRRASLG), upon phosphorylation by commercially obtained aurora-A kinase. Assays were performed using 96-well plates and appropriate assay buffers (8 mM MOPS, 0.2 mM EDTA, pH 7.0), into which were added 5-10 ng of active enzyme with 200 μM substrate (Kemptide). The reactions were initiated by addition of Mg/ATP mix (10 mM MgAcetate+15 μM ATP with 30-50 kBq per well of [γ-^33P]-ATP) and mixtures incubated for 40 min at room temperature. Reactions were stopped by addition of 3% phosphoric acid, followed by filtration through p81 filterplates (Whatman Polyfiltronics, Kent, UK). After washing 5 times with 75 mM aq orthophosphoric acid and once in methanol, plates were dried, scintillant added and incorporated radioactivity measured in a scintillation counter (TopCount, Packard Instruments, Pangbourne, Berks, UK). Compounds for kinase assay were made up as 10 mM stocks in DMSO and diluted into 10% DMSO in assay buffer.

CDK7/cyclin H = CDK7/cyclin H (Homo sapiens, UniProt P50613); assay: CDK 7 assay (CTD peptide substrate); conditions: read-out: Kinase Inhibition pIC50 CDK7-cyclin H (converted)
Method: as §1
(§2) CDK 7 and 9 assays. CTD peptide substrate (biotinyl-Abx-(Tyr-Ser-Pro-Thr-Ser-Pro-Ser)4-NH2; 1-2 mg/mL) and recombinant human CDK7/cyclin H, CDK9/cyclin T1, or CDK9/cyclin K (0.5-2 μg) were incubated for 45 min at 30° C. in the presence of varying amounts of test compound in 20 mM MOPS pH 7.2, 25 mM β-glycerophosphate, 5 mM EGTA, 1 mM DTT, 1 mM sodium vanadate, 15 mM MgCl2, and 100 μM ATP (containing a trace amount of ^32PγATP) in a total volume of 25 μL in a 96-well microtiter plate. The reaction was stopped by placing the plate on ice for 2 min. Avidin (50 μg) was added to each well, and the plate was incubated at room temp for 30 min. The samples were transferred to a 96-well P81 filter plate, and washed (4×200 μL per well) with 75 mM phosphoric acid. Microscint 40 scintillation liquid (50 μL) was added to each well, and the amount of ^32P incorporation for each sample was measured using a Packard Topcount microplate scintillation counter.

CDK9/cyclin T1 = CDK9/cyclin T1 (Homo sapiens, UniProt P50750); assay: CDK 9 assay (CTD peptide substrate); conditions: read-out: Kinase Inhibition pIC50 CDK9-cyclin T1 (converted)
Method: as §1, §2

Sequence of CDK9/cyclin T1 (P50750 whole entry): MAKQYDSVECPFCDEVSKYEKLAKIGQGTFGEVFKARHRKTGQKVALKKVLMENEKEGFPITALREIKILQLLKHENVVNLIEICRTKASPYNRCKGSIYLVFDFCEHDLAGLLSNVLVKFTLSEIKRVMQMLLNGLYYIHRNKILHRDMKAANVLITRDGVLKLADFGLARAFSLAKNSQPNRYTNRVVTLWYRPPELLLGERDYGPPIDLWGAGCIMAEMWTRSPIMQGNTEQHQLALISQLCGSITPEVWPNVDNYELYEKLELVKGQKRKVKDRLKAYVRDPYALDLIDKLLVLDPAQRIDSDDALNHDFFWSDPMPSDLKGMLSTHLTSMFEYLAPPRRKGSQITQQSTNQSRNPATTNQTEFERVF
Sequence of CDK9/cyclin T1 (O60563 whole entry partner): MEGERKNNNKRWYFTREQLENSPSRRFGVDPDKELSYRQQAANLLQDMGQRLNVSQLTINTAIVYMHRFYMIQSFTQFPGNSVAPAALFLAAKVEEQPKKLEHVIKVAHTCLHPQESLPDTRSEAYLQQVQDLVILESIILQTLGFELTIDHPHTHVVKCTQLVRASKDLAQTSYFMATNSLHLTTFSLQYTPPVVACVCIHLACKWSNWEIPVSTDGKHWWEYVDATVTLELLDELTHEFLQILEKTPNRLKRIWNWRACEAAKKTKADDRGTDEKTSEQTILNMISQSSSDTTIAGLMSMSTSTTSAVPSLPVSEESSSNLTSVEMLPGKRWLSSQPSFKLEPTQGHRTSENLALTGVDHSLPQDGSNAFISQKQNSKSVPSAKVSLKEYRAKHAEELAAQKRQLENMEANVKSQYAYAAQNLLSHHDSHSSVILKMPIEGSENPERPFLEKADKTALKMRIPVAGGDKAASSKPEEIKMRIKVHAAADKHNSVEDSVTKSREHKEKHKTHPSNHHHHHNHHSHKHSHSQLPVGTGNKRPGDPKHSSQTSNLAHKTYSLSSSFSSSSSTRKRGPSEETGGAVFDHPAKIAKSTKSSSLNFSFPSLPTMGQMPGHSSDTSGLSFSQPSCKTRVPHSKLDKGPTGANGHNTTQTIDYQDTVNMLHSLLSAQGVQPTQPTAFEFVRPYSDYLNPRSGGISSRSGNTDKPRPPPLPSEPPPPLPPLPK
Sequence of CDK7/cyclin H (P50613 whole entry): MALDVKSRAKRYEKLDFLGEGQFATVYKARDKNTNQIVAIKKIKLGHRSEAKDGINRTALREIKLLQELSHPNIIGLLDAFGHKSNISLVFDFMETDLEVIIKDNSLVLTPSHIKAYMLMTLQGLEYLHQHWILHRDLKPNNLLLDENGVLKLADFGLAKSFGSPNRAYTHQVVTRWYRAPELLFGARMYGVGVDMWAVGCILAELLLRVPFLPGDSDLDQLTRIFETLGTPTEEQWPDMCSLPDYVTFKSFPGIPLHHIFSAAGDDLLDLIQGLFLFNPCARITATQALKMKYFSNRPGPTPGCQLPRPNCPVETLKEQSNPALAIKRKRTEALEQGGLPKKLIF
Sequence of CDK7/cyclin H (P51946 whole entry partner): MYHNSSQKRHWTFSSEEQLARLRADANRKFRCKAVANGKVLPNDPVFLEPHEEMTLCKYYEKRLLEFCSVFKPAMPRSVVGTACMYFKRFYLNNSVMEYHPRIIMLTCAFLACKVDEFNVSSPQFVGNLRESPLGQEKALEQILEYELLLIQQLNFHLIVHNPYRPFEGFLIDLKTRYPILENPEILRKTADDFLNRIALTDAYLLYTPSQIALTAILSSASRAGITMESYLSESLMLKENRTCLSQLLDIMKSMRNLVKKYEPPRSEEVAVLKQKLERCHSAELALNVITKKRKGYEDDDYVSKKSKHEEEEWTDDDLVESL

| Structure (SMILES) | IC50 (CDK2-cycline E) | IC50 [1] | IC50 (Aurora A kinase) | IC50 (CDK7/cyclin H) | IC50 (CDK9/cyclin T1) |
| --- | --- | --- | --- | --- | --- |
| Cc1nc(C)c(-c2ccnc(Nc3cccc(N4CCOCC4)c3)n2)s1 [Compound 152, [4-(2,4-Dimethyl-thiazol-5-yl)-pyrimidin-2-yl]-(3-morpholin-4-yl-phenyl)-amine] | 316 nM | 31.6 nM | 50.1 nM |  |  |
| COc1cc(Nc2nccc(-c3sc(CO)nc3C)n2)ccc1N1CCCCC1 [Compound 216, {5-[2-(3-Methoxy-4-piperidin-1-yl-phenylamino)-pyrimidin-4-yl]-4-methyl-thiazol-2-yl}-methanol] | 1580 nM |  | 63.1 nM | 1580 nM | 631 nM |
| COc1cc(Nc2nccc(-c3sc(-c4cccnc4)nc3C)n2)cc(OC)c1OC [Compound 154, [4-(4-Methyl-2-pyridin-3-yl-thiazol-5-yl)-pyrimidin-2-yl]-(3,4,5-trimethoxy-phenyl)-amine] |  | 100 nM | 79.4 nM |  |  |
| Cc1nc(CO)sc1-c1ccnc(Nc2ccc(N3CCCCC3)cc2)n1 [Compound 197, {4-Methyl-5-[2-(4-piperidin-1-yl-phenylamino)-pyrimidin-4-yl]-thiazol-2-yl}-methanol] | 2510 nM |  | 100 nM | 7940 nM | 3160 nM |
| Cc1nc(C)c(-c2ccnc(Nc3cccc(CN4CCOCC4)c3)n2)s1 [Compound 150, [4-(2,4-Dimethyl-thiazol-5-yl)-pyrimidin-2-yl]-(3-morpholin-4-ylmethyl-phenyl)-amine] | 1260 nM | 126 nM | 158 nM |  |  |
| CC(=O)N1CCN(c2ccc(Nc3nccc(-c4sc(N(C)Cc5ccccc5)nc4C)n3)cc2)CC1 [Compound 122, 1-[4-(4-{4-[2-(Benzyl-methyl-amino)-4-methyl-thiazol-5-yl]-pyrimidin-2-ylamino}-phenyl)-piperazin-1-yl]-ethanone] | 2000 nM |  | 200 nM | 1580 nM | 1260 nM |
| Cc1nc(C)c(-c2ccnc(Nc3ccc(N4CCN(Cc5ccccc5)CC4)cc3)n2)s1 [Compound 114, [4-(4-Benzyl-piperazin-1-yl)-phenyl]-[4-(2,4-dimethyl-thiazol-5-yl)-pyrimidin-2-yl]-amine] | 1260 nM |  | 316 nM | 126 nM | 1580 nM |
| COc1cc(Nc2nccc(-c3sc(N)nc3C)n2)ccc1N1CCOCC1 [Compound 182, [4-(2-Amino-4-methyl-thiazol-5-yl)-pyrimidin-2-yl]-(3-methoxy-4-morpholin-4-yl-phenyl)-amine] | 794 nM |  | 39.8 nM | 2510 nM | 1000 nM |
| COc1cc(Nc2nccc(-c3sc(C)nc3C)n2)ccc1N1CCOCC1 [Compound 173, [4-(2,4-Dimethyl-thiazol-5-yl)-pyrimidin-2-yl]-(3-methoxy-4-morpholin-4-yl-phenyl)-amine] | 794 nM |  | 39.8 nM | 3160 nM | 3160 nM |
| Cc1cc(Nc2nccc(-c3sc(CO)nc3C)n2)ccc1N1CCOCC1 [Compound 217, {4-Methyl-5-[2-(3-methyl-4-morpholin-4-yl-phenylamino)-pyrimidin-4-yl]-thiazol-2-yl}-methanol] | 1260 nM |  | 50.1 nM | 7940 nM | 3980 nM |
| CCN(C)c1nc(C)c(-c2ccnc(Nc3ccc(N4CCOCC4)cc3)n2)s1 [Compound 120, {4-[2-(Ethyl-methyl-amino)-4-methyl-thiazol-5-yl]-pyrimidin-2-yl}-(4-morpholin-4-yl-phenyl)-amine] | 794 nM |  | 31.6 nM | 3160 nM | 2000 nM |
| COc1cc(Nc2nccc(-c3sc(-c4cccnc4)nc3C)n2)ccc1N1CCOCC1 [Compound 156, (3-Methoxy-4-morpholin-4-yl-phenyl)-[4-(4-methyl-2-pyridin-3-yl-thiazol-5-yl)-pyrimidin-2-yl]-amine] |  | 100 nM | 100 nM |  |  |
| Cc1nc(N)sc1-c1ccnc(Nc2ccc(N3CCCCC3)cc2)n1 [Compound 195, [4-(2-Amino-4-methyl-thiazol-5-yl)-pyrimidin-2-yl]-(4-piperidin-1-yl-phenyl)-amine] | 794 nM |  | 39.8 nM | 1580 nM | 398 nM |
| Cc1nc(C)c(-c2ccnc(Nc3ccc(N4CCN(CC(=O)NC(C)C)CC4)cc3)n2)s1 [Compound 190, 2-(4-{4-[4-(2,4-Dimethyl-thiazol-5-yl)-pyrimidin-2-ylamino]-phenyl}-piperazin-1-yl)-N-isopropyl-acetamide] | 1000 nM |  | 63.1 nM | 7940 nM | 2510 nM |
| Cc1nc(N)sc1-c1ccnc(Nc2ccc(N3CCOCC3)c(C(N)=O)c2)n1 [Compound 211, 5-[4-(2-Amino-4-methyl-thiazol-5-yl)-pyrimidin-2-ylamino]-2-morpholin-4-yl-benzamide] | 2510 nM |  | 158 nM | 6310 nM | 2000 nM |
| Cc1nc(C)c(-c2ccnc(Nc3cc(CO)cc(CO)c3)n2)s1 [Compound 47, {3-[4-(2,4-Dimethyl-thiazol-5-yl)-pyrimidin-2-ylamino]-5-hydroxymethyl-phenyl}-methanol] |  | 200 nM |  |  |  |
